Test results from ChEMBL document CHEMBL1201861, “Genomics of Drug Sensitity in Cancer screening data, Wellcome Trust Sanger Institute”.

Experiments:
Experiment in all cases: cells
NCI-H510A = type: functional, cell-based, Homo sapiens; settings: Homo sapiens, NCI-H510A;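 further: growth inhibition of NCI-H510A cells, read out with a cell viability assay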
Description: SANGER: Inhibition of human NCI-H510A cell growth in a cell viability assay.

CAL-27 = type: functional, cell-based; settings: Homo sapiens;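 further: Viability-based readout, IC50 reflecting inhibition of CAL-27 cell growth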
Description: SANGER: Inhibition of human CAL-27 cell growth in a cell viability assay.

MKN-7 = type: functional, cell-based; settings: Homo sapiens;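 further: growth inhibition of MKN-7 cells, read out with a cell viability assay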
Description: SANGER: Inhibition of human MKN7 cell growth in a cell viability assay.

MRK-nu-1 = type: functional, cell-based, Homo sapiens; settings: Homo sapiens, MRK-nu-1;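 further: cell viability assay measuring growth suppression of human MRK-nu-1 cells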
Description: SANGER: Inhibition of human MRK-nu-1 cell growth in a cell viability assay.

LCLC-103H cell line = type: functional, cell-based; settings: Homo sapiens
Description: SANGER: Inhibition of human LCLC-103H cell growth in a cell viability assay.

SW13 = type: functional, cell-based; settings: Homo sapiens;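 further: IC50 is inhibition of SW13 cell growth, read out with a cell viability assay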
Description: SANGER: Inhibition of human SW13 cell growth in a cell viability assay.

UO-31 = type: functional, cell-based; settings: Homo sapiens;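 further: cell viability assay measuring inhibition of cell growth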
Description: SANGER: Inhibition of human U031 cell growth in a cell viability assay.

OVCAR-8 = type: functional, cell-based; settings: Homo sapiens;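 further: growth inhibition of human OVCAR-8 cells, read out by a cell viability assay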
Description: SANGER: Inhibition of human OVCAR-8 cell growth in a cell viability assay.

RVH-421 = type: functional, cell-based; settings: Homo sapiens
Description: SANGER: Inhibition of human RVH-421 cell growth in a cell viability assay.

LB647-SCLC = type: functional, cell-based, Homo sapiens; settings: Homo sapiens, LB647-SCLC;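 further: cell growth inhibition, read out by a viability assay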
Description: SANGER: Inhibition of human LB647-SCLC cell growth in a cell viability assay.

SIG-M5 = type: functional, cell-based, Homo sapiens; settings: Homo sapiens, SIG-M5;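 further: cell viability assay read-out, measuring how strongly growth of cultured human SIG-M5 cells is inhibited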
Description: SANGER: Inhibition of human SIG-M5 cell growth in a cell viability assay.

ESS-1 = type: functional, cell-based; settings: Homo sapiens;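 further: growth inhibition of human ESS-1 cells, read out by a cell viability assay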
Description: SANGER: Inhibition of human ESS-1 cell growth in a cell viability assay.

SW1463 = type: functional, cell-based; settings: Homo sapiens;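 further: growth inhibition of SW1463 cells, determined with a cell viability assay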
Description: SANGER: Inhibition of human SW1463 cell growth in a cell viability assay.

Calu-3 = type: functional, cell-based; settings: Homo sapiens;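 further: growth inhibition of human Calu-3 cells, determined with a cell viability assay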
Description: SANGER: Inhibition of human Calu-3 cell growth in a cell viability assay.

SIMA = type: functional, cell-based, Homo sapiens; settings: Homo sapiens, SIMA;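 further: growth inhibition of SIMA cells, measured with a cell viability readout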
Description: SANGER: Inhibition of human SIMA cell growth in a cell viability assay.

T47D = type: functional, cell-based; settings: Homo sapiens;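 further: growth inhibition of human T47D cells, measured with a cell viability assay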
Description: SANGER: Inhibition of human T47D cell growth in a cell viability assay.

SAOS-2 = type: functional, cell-based; settings: Homo sapiens;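 further: growth inhibition of human Saos-2 cells determined by a cell viability assay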
Description: SANGER: Inhibition of human Saos-2 cell growth in a cell viability assay.

SW1417 = type: functional, cell-based; settings: Homo sapiens;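 further: growth inhibition of human SW1417 cells, read out with a cell viability assay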
Description: SANGER: Inhibition of human SW1417 cell growth in a cell viability assay.

HT1197 = type: functional, cell-based, HT-1197; settings: Homo sapiens
Description: SANGER: Inhibition of human HT-1197 cell growth in a cell viability assay.

BCPAP = type: functional, cell-based; settings: Homo sapiens;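 further: growth inhibition of BCPAP cells, read out in a cell viability assay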
Description: SANGER: Inhibition of human BCPAP cell growth in a cell viability assay.

CAL-148 = type: functional, cell-based, Homo sapiens; settings: Homo sapiens, CAL-148
Description: SANGER: Inhibition of human CAL-148 cell growth in a cell viability assay.

BEN = type: functional, cell-based; settings: Homo sapiens;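 further: growth inhibition of the BEN cell line, read out with a cell viability assay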
Description: SANGER: Inhibition of human BEN cell growth in a cell viability assay.

SW756 = type: functional, cell-based; settings: Homo sapiens;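 further: growth inhibition of human SW756 cells, read out with a cell viability assay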
Description: SANGER: Inhibition of human SW756 cell growth in a cell viability assay.

RPMI-7951 = type: functional, cell-based; settings: Homo sapiens
Description: SANGER: Inhibition of human RPMI-7951 cell growth in a cell viability assay.

GDM-1 = type: functional, cell-based, Homo sapiens; settings: Homo sapiens, GDM-1; read-out: IC50;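 further: cell viability readout used to measure growth inhibition of human GDM-1 cells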
Description: SANGER: Inhibition of human GDM-1 cell growth in a cell viability assay.

HN = type: functional, cell-based; settings: Homo sapiens
Description: SANGER: Inhibition of human HN cell growth in a cell viability assay.

SW837 = type: functional, cell-based; settings: Homo sapiens;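 further: growth inhibition of SW837 cells, determined with a cell viability assay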
Description: SANGER: Inhibition of human SW837 cell growth in a cell viability assay.

TE-441-T = type: functional, cell-based, Homo sapiens; settings: Homo sapiens, TE-441-T
Description: SANGER: Inhibition of human TE-441-T cell growth in a cell viability assay.

SCC-3 = type: functional, cell-based, Homo sapiens; settings: Homo sapiens, SCC-3;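 further: cell viability assay measuring inhibition of SCC-3 cell growth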
Description: SANGER: Inhibition of human SCC-3 cell growth in a cell viability assay.

8305C = type: functional, cell-based; settings: Homo sapiens
Description: SANGER: Inhibition of human 8305C cell growth in a cell viability assay.

MKN-45 = type: functional, cell-based; settings: Homo sapiens;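 further: growth inhibition of human MKN-45 cells, measured with a cell viability assay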
Description: SANGER: Inhibition of human MKN45 cell growth in a cell viability assay.

NCI-H661 = type: functional, cell-based; settings: Homo sapiens;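 further: cell viability assay read-out, IC50 being the concentration that inhibits growth of the cells by half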
Description: SANGER: Inhibition of human NCI-H661 cell growth in a cell viability assay.

Daudi = type: functional, cell-based, Homo sapiens; settings: Homo sapiens, Daudi;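 further: growth inhibition of Daudi cells, read out by a viability assay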
Description: SANGER: Inhibition of human Daudi cell growth in a cell viability assay.

BC-3 = type: functional, cell-based, Homo sapiens; settings: Homo sapiens, BC-3;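 further: cell viability assay measuring growth inhibition of human BC-3 cells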
Description: SANGER: Inhibition of human BC-3 cell growth in a cell viability assay.

Daoy = type: functional, cell-based; settings: Homo sapiens;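 further: daoy cell growth inhibition, read out as cell viability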
Description: SANGER: Inhibition of human Daoy cell growth in a cell viability assay.

HuP-T3 = type: functional, cell-based; settings: Homo sapiens;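 further: HuP-T3 cell growth inhibition, read out with a cell viability assay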
Description: SANGER: Inhibition of human HuP-T3 cell growth in a cell viability assay.

A673 = type: functional, cell-based; settings: Homo sapiens;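 further: growth inhibition of human A673 cells, read out through a cell viability assay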
Description: SANGER: Inhibition of human A673 cell growth in a cell viability assay.

CA46 = type: functional, cell-based, Homo sapiens; settings: Homo sapiens, CA46;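 further: growth inhibition of human CA46 cells, read out by a cell viability assay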
Description: SANGER: Inhibition of human CA46 cell growth in a cell viability assay.

NCI-H2052 = type: functional, cell-based; settings: Homo sapiens;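 further: growth inhibition of NCI-H2052 cells, read out with a cell viability assay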
Description: SANGER: Inhibition of human NCI-H2052 cell growth in a cell viability assay.

NCI-H1882 = type: functional, cell-based, Homo sapiens; settings: Homo sapiens, NCI-H1882;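 further: growth inhibition of the cell line, determined with a viability assay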
Description: SANGER: Inhibition of human NCI-H1882 cell growth in a cell viability assay.

ChaGo-K-1 = type: functional, cell-based; settings: Homo sapiens;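 further: growth inhibition of ChaGo-K-1 cells, read out with a cell viability assay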
Description: SANGER: Inhibition of human ChaGo-K-1 cell growth in a cell viability assay.

MEL-JUSO = type: functional, cell-based; settings: Homo sapiens;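 further: growth inhibition of human MEL-JUSO cells, read out with a cell viability assay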
Description: SANGER: Inhibition of human MEL-JUSO cell growth in a cell viability assay.

KOSC-2 = type: functional, cell-based; settings: Homo sapiens;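 further: growth inhibition of KOSC-2 cells, read out by a cell viability assay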
Description: SANGER: Inhibition of human KOSC-2 cell growth in a cell viability assay.

KYSE-270 = type: functional, cell-based; settings: Homo sapiens;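 further: cell growth inhibition measured with a viability assay in the human KYSE-270 line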
Description: SANGER: Inhibition of human KYSE-270 cell growth in a cell viability assay.

REH = type: functional, cell-based, Homo sapiens; settings: Homo sapiens, REH;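 further: growth inhibition of REH cells determined with a cell viability read-out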
Description: SANGER: Inhibition of human REH cell growth in a cell viability assay.

D-542MG = type: functional, cell-based; settings: Homo sapiens
Description: SANGER: Inhibition of human D-542MG cell growth in a cell viability assay.

LU-165 = type: functional, cell-based, Homo sapiens; settings: Homo sapiens, LU-165
Description: SANGER: Inhibition of human LU-165 cell growth in a cell viability assay.

M14 = type: functional, cell-based; settings: Homo sapiens;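 further: growth inhibition of M14 cells, read out with a cell viability assay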
Description: SANGER: Inhibition of human M14 cell growth in a cell viability assay.

CWR22R = type: functional, cell-based; settings: Homo sapiens, 22Rv1;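 further: growth inhibition of 22Rv1 cells, read out with a cell viability assay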
Description: SANGER: Inhibition of human 22RV1 cell growth in a cell viability assay.

MeWo = type: functional, cell-based; settings: Homo sapiens;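 further: growth inhibition of MeWo cells, determined by a cell viability readout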
Description: SANGER: Inhibition of human Mewo cell growth in a cell viability assay.

NCI-H358 = type: functional, cell-based; settings: Homo sapiens;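 further: growth inhibition of NCI-H358 human cells, read out with a cell viability assay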
Description: SANGER: Inhibition of human NCI-H358 cell growth in a cell viability assay.

LN-405 = type: functional, cell-based; settings: Homo sapiens
Description: SANGER: Inhibition of human LN-405 cell growth in a cell viability assay.

JEG-3 = type: functional, cell-based; settings: Homo sapiens;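 further: growth inhibition of human JEG-3 cells, read out with a cell viability assay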
Description: SANGER: Inhibition of human JEG-3 cell growth in a cell viability assay.

SN12C = type: functional, cell-based; settings: Homo sapiens;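 further: growth inhibition of human SN12C cells, measured by a cell viability assay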
Description: SANGER: Inhibition of human SN12C cell growth in a cell viability assay.

ASPC1 = type: functional, cell-based; settings: Homo sapiens;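 further: growth inhibition of AsPC-1 cells, read out with a cell viability assay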
Description: SANGER: Inhibition of human AsPC-1 cell growth in a cell viability assay.

SK-HEP1 = type: functional, cell-based, SK-HEP-1; settings: Homo sapiens;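 further: cell viability readout used to quantify reduction in proliferation of human SK-HEP-1 cells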
Description: SANGER: Inhibition of human SK-HEP-1 cell growth in a cell viability assay.

PANC-08-13 = type: functional, cell-based; settings: Homo sapiens;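 further: cell growth inhibition, measured with a cell viability assay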
Description: SANGER: Inhibition of human PANC-08-13 cell growth in a cell viability assay.

NB17 = type: functional, cell-based, Homo sapiens; settings: Homo sapiens, NB17;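 further: growth inhibition of NB17 cells, read out with a cell viability assay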
Description: SANGER: Inhibition of human NB17 cell growth in a cell viability assay.

EW-22 = type: functional, cell-based; settings: Homo sapiens;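 further: growth inhibition of the EW-22 cell line, measured with a cell viability readout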
Description: SANGER: Inhibition of human EW-22 cell growth in a cell viability assay.

NCI-H630 = type: functional, cell-based; settings: Homo sapiens
Description: SANGER: Inhibition of human NCI-H630 cell growth in a cell viability assay.

Compound: COc1ccc(-c2cc3nccn3c(Nc3ncccc3C(N)=O)n2)cc1OC
- IC50 (NCI-H510A): > 8 µM
- IC50 (CAL-27): 4.59 µM
- IC50 (MKN-7): > 8 µM
- IC50 (MRK-nu-1): 2.91 µM
- IC50 (LCLC-103H cell line): 3.08 µM
- IC50 (SW13): > 8 µM
- IC50 (UO-31): 6.71 µM
- IC50 (OVCAR-8): > 8 µM
- IC50 (RVH-421): > 8 µM
- IC50 (LB647-SCLC): > 8 µM
- IC50 (SIG-M5): 0.848 µM
- IC50 (ESS-1): 4.08 µM
- IC50 (SW1463): > 8 µM
- IC50 (Calu-3): > 8 µM
- IC50 (SIMA): 7.18 µM
- IC50 (T47D): > 8 µM
- IC50 (SAOS-2): > 8 µM
- IC50 (SW1417): > 8 µM
- IC50 (HT1197): > 8 µM
- IC50 (BCPAP): 3.17 µM
- IC50 (CAL-148): > 8 µM
- IC50 (BEN): > 8 µM
- IC50 (SW756): > 8 µM
- IC50 (RPMI-7951): 3.48 µM
- IC50 (GDM-1): 0.683 µM
- IC50 (HN): > 8 µM
- IC50 (SW837): 3.54 µM
- IC50 (TE-441-T): 3.96 µM
- IC50 (SCC-3): 7.5 µM
- IC50 (8305C): 2.42 µM
- IC50 (MKN-45): > 8 µM
- IC50 (NCI-H661): > 8 µM
- IC50 (Daudi): 0.607 µM
- IC50 (BC-3): 2.47 µM
- IC50 (Daoy): > 8 µM
- IC50 (HuP-T3): > 8 µM
- IC50 (A673): > 8 µM
- IC50 (CA46): 1.08 µM
- IC50 (NCI-H2052): > 8 µM
- IC50 (NCI-H1882): > 8 µM
- IC50 (ChaGo-K-1): > 8 µM
- IC50 (MEL-JUSO): 2.74 µM
- IC50 (KOSC-2): > 8 µM
- IC50 (KYSE-270): 1.45 µM
- IC50 (REH): 2.25 µM
- IC50 (D-542MG): > 8 µM
- IC50 (LU-165): 7.97 µM
- IC50 (M14): > 8 µM
- IC50 (CWR22R): > 8 µM
- IC50 (MeWo): > 8 µM
- IC50 (NCI-H358): 0.689 µM
- IC50 (LN-405): > 8 µM
- IC50 (JEG-3): > 8 µM
- IC50 (SN12C): > 8 µM
- IC50 (ASPC1): > 8 µM
- IC50 (SK-HEP1): 1.82 µM
- IC50 (PANC-08-13): > 8 µM

Compound: OC[C@H](Cc1ccccc1)Nc1nc(Oc2ccc3c(c2)CCC3)nc2c1ncn2Cc1ccc(-c2ccccc2)cc1
- IC50 (NCI-H510A): > 10.2 µM
- IC50 (CAL-27): > 10.2 µM
- IC50 (MKN-7): > 10.2 µM
- IC50 (MRK-nu-1): > 10.2 µM
- IC50 (LCLC-103H cell line): > 10.2 µM
- IC50 (SW13): > 10.2 µM
- IC50 (UO-31): > 10.2 µM
- IC50 (OVCAR-8): > 10.2 µM
- IC50 (RVH-421): > 10.2 µM
- IC50 (LB647-SCLC): 5.49 µM
- IC50 (SIG-M5): 0.654 µM
- IC50 (ESS-1): > 10.2 µM
- IC50 (SW1463): > 10.2 µM
- IC50 (Calu-3): > 10.2 µM
- IC50 (SIMA): > 10.2 µM
- IC50 (T47D): > 10.2 µM
- IC50 (SAOS-2): > 10.2 µM
- IC50 (SW1417): > 10.2 µM
- IC50 (HT1197): > 10.2 µM
- IC50 (BCPAP): > 10.2 µM
- IC50 (CAL-148): > 10.2 µM
- IC50 (BEN): > 10.2 µM
- IC50 (SW756): > 10.2 µM
- IC50 (RPMI-7951): 1.41 µM
- IC50 (GDM-1): 3.33 µM
- IC50 (HN): 8.17 µM
- IC50 (SW837): > 10.2 µM
- IC50 (TE-441-T): > 10.2 µM
- IC50 (SCC-3): > 10.2 µM
- IC50 (8305C): 2.76 µM
- IC50 (MKN-45): > 10.2 µM
- IC50 (NCI-H661): > 10.2 µM
- IC50 (Daudi): > 10.2 µM
- IC50 (BC-3): 6.66 µM
- IC50 (Daoy): 2.93 µM
- IC50 (HuP-T3): > 10.2 µM
- IC50 (A673): > 10.2 µM
- IC50 (CA46): > 10.2 µM
- IC50 (NCI-H2052): > 10.2 µM
- IC50 (NCI-H1882): > 10.2 µM
- IC50 (ChaGo-K-1): > 10.2 µM
- IC50 (MEL-JUSO): 7.9 µM
- IC50 (KOSC-2): > 10.2 µM
- IC50 (KYSE-270): 1.76 µM
- IC50 (REH): > 10.2 µM
- IC50 (D-542MG): > 10.2 µM
- IC50 (LU-165): > 10.2 µM
- IC50 (M14): > 10.2 µM
- IC50 (CWR22R): > 10.2 µM
- IC50 (MeWo): > 10.2 µM
- IC50 (NCI-H358): > 10.2 µM
- IC50 (LN-405): > 10.2 µM
- IC50 (JEG-3): > 10.2 µM
- IC50 (SN12C): > 10.2 µM
- IC50 (ASPC1): > 10.2 µM
- IC50 (SK-HEP1): 10.1 µM
- IC50 (PANC-08-13): > 10.2 µM

Compound: Cc1ccc(-n2nc(C(C)(C)C)cc2NC(=O)Nc2ccc(OCCN3CCOCC3)c3ccccc23)cc1 [DORAMAPIMOD]
- IC50 (CAL-27): > 10 µM
- IC50 (MKN-7): > 10 µM
- IC50 (LCLC-103H cell line): > 10 µM
- IC50 (SW13): > 10 µM
- IC50 (UO-31): > 10 µM
- IC50 (OVCAR-8): > 10 µM
- IC50 (RVH-421): > 10 µM
- IC50 (ESS-1): > 10 µM
- IC50 (SW1463): > 10 µM
- IC50 (Calu-3): > 10 µM
- IC50 (T47D): > 10 µM
- IC50 (SAOS-2): > 10 µM
- IC50 (SW1417): > 10 µM
- IC50 (HT1197): > 10 µM
- IC50 (BCPAP): > 10 µM
- IC50 (BEN): > 10 µM
- IC50 (SW756): > 10 µM
- IC50 (RPMI-7951): > 10 µM
- IC50 (HN): > 10 µM
- IC50 (SW837): > 10 µM
- IC50 (8305C): > 10 µM
- IC50 (NB17): > 10 µM
- IC50 (MKN-45): > 10 µM
- IC50 (NCI-H661): > 10 µM
- IC50 (Daoy): > 10 µM
- IC50 (HuP-T3): > 10 µM
- IC50 (A673): > 10 µM
- IC50 (NCI-H2052): > 10 µM
- IC50 (ChaGo-K-1): > 10 µM
- IC50 (MEL-JUSO): > 10 µM
- IC50 (KOSC-2): > 10 µM
- IC50 (KYSE-270): > 10 µM
- IC50 (EW-22): > 10 µM
- IC50 (D-542MG): > 10 µM
- IC50 (M14): > 10 µM
- IC50 (CWR22R): > 10 µM
- IC50 (MeWo): > 10 µM
- IC50 (NCI-H358): 7.54 µM
- IC50 (LN-405): > 10 µM
- IC50 (JEG-3): > 10 µM
- IC50 (SN12C): > 10 µM
- IC50 (NCI-H630): > 10 µM
- IC50 (ASPC1): > 10 µM
- IC50 (SK-HEP1): > 10 µM
- IC50 (PANC-08-13): > 10 µM
